Measured values from article PMC11798738, “Targeting ASK1 by CS17919 alleviates kidney‐ and liver‐related diseases in murine models” (Animal Models and Experimental Medicine, 2024).
“Also recorded” adds a separate entry of the source. Read-outs that look alike come from different tables or passages of the source. Marks after values point to notes of the source that are not given here.

What was measured:
[1] = tested on: UUO model; parameters: method as in PMID 37310976; settings: cited from earlier work
[2] = tested on: DKD; parameters: method as in PMID 30526503, PMID 26180085, PMID 30024858; settings: cited from earlier work
[3] = tested on: NASH; parameters: method as in PMID 28218919, PMID 31996485; settings: cited from earlier work
[4] = tested on: NASH mouse model; experiment: CCL4- and HFD-induced NASH mouse model; type: in vivo, C57BL/6J mice; settings: CS17919 20 mg/kg
Description: 41 C57BL/6J mice, male, 6–8 weeks of age, were purchased from Chengdu Dossy Experimental Animal Co. (Chengdu, China), 9 of which were assigned in the control group and fed a chow diet. The other 32 mice were fed a HFD (D12429, Research diet, USA). After 8 weeks of feeding, these mice with HFD were subcutaneously injected with CCL4 (0.1 mL/kg) twice a week. These mice were then randomly subdivided into 4 groups according to serum ALT and AST at week 12: Model (n = 8), CS17919 (n = 8), CS27109 (n = 8), and Combination (n = 8). Both the control and model groups were given the solvent mentioned above, administered orally twice a day, while CS17919 was administered twice a day by gavage at a dose of 20 mg/kg and CS27109 was administered twice a day by gavage at a dose of 10 mg/kg for 4 weeks. The body weight of each mouse was measured every 3 days during the drug intervention. All animals were fasted overnight after the last drug administration and blood was collected to isolate serum for biochemical tests including AST, ALT, TG, TC, HDL‐c, and LDL‐c. The liver of each mouse was removed, the right lobe of which was fixed in 10% formalin solution for pathological study.
H&E staining was applied to determine scores for liver steatosis, ballooning and inflammation in the NASH model. Thin 4 μm paraffin sections of each sample were used to assess liver histology, following a standard protocol. Paraffin sections were deparaffinized and placed in Hematoxylin staining solution for 3–8 min before using tap water to elute excess Hematoxylin. Sections were stained in Eosin stain for about 1–3 min and rinsed with tap water. Finally, the slices were dehydrated and sealed. Score ranges were 0–3 for liver steatosis, 0–2 for ballooning and 0–12 for inflammation (which included scores of 0–3 for portal inflammation, 0–3 for lobular inflammation, 0–3 for piecemeal necrosis, and 0–3 for bridging necrosis).
Sirius Red staining was applied to determine liver fibrosis in the NASH model. Thin 4 μm paraffin sections of each sample were used in this study followed the standard procedure. Sections were first stained with Hematoxylin for 5–10 min, then washed and stained with Sirius Red stain about 15–30 min. Finally, the sections were rinsed and sealed. Image‐Pro Plus 6.0 was used for analyzing the area of liver fibrosis and the percentage of the fibrosis area in each section was calculated.

[5] = target: T1, CYP3A4 (Homo sapiens, UniProt P08684); experiment: CYP inhibition in vitro; settings: read-out: CYP3A4 (Midazolam) inhibition IC50; substrate Midazolam
T1 sequence (P08684 whole entry): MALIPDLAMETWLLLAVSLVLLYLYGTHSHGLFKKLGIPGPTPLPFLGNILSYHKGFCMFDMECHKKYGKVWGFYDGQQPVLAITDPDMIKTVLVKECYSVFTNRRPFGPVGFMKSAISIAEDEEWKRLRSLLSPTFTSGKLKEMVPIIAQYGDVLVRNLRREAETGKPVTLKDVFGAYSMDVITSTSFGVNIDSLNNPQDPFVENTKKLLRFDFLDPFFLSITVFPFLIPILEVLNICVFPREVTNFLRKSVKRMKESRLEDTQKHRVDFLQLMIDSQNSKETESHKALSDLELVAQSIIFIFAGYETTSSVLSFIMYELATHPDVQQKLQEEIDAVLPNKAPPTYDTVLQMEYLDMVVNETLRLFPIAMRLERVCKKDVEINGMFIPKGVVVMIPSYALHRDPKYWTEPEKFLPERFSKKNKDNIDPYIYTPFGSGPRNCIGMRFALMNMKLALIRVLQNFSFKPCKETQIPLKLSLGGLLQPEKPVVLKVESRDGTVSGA

[6] = Metabolic stability in liver microsomes; type: in vitro ADME; settings: Human
[7] = Metabolic stability in liver microsomes; type: in vitro ADME; settings: Mouse
[8] = tested on: NASH mouse model; experiment: CCL4- and HFD-induced NASH mouse model; type: in vivo, C57BL/6J mice; settings: data not shown; model group 5/9
[9] = target: CYP 2C19 (Homo sapiens, UniProt P33261); experiment: CYP inhibition in vitro; type: in vitro ADME
Chain of CYP 2C19 (P33261 whole entry): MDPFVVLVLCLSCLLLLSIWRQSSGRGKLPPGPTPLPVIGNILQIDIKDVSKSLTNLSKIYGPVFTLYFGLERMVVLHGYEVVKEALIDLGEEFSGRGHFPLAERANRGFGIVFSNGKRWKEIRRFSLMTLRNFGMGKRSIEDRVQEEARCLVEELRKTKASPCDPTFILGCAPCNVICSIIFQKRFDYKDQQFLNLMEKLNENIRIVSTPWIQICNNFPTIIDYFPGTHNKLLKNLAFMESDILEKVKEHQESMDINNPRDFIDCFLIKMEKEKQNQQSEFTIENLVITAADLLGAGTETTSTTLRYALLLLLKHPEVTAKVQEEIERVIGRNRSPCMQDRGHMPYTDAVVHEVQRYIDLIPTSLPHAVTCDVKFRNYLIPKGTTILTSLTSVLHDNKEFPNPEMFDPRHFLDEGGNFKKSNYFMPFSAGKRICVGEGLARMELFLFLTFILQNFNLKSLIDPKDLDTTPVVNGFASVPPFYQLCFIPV

[10] = target: CYP 2C8 (Homo sapiens, UniProt P10632); experiment: CYP inhibition in vitro; type: in vitro ADME
Chain of CYP 2C8 (P10632 whole entry): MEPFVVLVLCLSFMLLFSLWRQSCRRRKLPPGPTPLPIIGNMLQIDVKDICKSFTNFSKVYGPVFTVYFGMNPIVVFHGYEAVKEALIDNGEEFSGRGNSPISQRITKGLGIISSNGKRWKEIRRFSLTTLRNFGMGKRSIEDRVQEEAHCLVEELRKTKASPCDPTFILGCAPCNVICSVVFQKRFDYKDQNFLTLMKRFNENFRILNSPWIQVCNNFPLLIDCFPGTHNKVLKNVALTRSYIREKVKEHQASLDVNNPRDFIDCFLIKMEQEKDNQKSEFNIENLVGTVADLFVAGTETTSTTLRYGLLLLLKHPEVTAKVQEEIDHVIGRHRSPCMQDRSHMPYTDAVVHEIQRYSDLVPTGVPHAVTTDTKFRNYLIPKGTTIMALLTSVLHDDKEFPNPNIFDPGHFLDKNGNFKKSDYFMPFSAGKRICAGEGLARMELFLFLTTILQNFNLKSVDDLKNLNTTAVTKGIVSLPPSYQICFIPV

[11] = target: CYP 1A2 (Homo sapiens, UniProt P05177)
Chain of CYP 1A2 (P05177 whole entry): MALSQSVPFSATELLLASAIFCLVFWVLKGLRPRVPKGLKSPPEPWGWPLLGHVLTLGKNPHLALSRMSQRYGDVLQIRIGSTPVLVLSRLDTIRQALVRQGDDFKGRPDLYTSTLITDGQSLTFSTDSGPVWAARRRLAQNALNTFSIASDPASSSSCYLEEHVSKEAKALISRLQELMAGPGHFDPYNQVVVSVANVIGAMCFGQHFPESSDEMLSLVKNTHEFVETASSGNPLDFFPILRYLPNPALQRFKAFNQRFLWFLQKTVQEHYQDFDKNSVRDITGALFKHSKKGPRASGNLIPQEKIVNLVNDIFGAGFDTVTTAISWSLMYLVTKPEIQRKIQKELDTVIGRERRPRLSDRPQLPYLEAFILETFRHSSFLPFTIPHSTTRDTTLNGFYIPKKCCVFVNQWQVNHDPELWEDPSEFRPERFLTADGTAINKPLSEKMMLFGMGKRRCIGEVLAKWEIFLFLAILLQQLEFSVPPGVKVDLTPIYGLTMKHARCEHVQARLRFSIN

[12] = Metabolic stability in liver microsomes; type: in vitro ADME; settings: Rat
[13] = target: T1, CYP3A4
[14] = target: CYP 2D6 (Homo sapiens, UniProt P10635); experiment: CYP inhibition in vitro; type: in vitro ADME
Chain of CYP 2D6 (P10635 whole entry): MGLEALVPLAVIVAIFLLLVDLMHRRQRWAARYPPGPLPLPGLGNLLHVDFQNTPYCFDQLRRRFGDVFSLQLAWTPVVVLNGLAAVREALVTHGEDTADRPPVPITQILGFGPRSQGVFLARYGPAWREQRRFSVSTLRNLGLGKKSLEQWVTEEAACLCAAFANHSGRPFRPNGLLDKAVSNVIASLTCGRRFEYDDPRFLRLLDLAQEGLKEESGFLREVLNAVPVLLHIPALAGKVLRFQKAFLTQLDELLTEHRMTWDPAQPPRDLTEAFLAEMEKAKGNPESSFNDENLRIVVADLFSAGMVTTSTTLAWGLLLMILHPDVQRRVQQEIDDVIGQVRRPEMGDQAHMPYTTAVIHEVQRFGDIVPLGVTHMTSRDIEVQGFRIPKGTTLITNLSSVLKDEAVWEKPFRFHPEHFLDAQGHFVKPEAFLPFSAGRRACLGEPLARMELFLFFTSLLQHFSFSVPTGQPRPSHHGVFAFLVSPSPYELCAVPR

[15] = target: CYP 2C9 (Homo sapiens, UniProt P11712); experiment: CYP inhibition in vitro; type: in vitro ADME
Chain of CYP 2C9 (P11712 whole entry): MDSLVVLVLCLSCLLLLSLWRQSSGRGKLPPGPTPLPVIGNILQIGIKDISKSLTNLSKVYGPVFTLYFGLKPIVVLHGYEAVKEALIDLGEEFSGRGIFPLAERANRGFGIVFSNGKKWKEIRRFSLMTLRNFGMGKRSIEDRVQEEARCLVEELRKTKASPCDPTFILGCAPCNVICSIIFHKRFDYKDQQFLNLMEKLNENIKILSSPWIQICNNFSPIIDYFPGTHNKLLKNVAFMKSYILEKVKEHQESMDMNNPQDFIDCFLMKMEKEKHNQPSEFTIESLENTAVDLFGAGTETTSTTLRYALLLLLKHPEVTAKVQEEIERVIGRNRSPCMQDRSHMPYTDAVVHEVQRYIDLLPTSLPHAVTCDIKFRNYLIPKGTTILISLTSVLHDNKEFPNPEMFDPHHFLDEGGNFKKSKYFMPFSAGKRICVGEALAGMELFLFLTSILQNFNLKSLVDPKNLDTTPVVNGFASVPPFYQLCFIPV

[16] = target: CYP 2B6 (Homo sapiens, UniProt P20813); experiment: CYP inhibition in vitro; type: in vitro ADME
Chain of CYP 2B6 (P20813 whole entry): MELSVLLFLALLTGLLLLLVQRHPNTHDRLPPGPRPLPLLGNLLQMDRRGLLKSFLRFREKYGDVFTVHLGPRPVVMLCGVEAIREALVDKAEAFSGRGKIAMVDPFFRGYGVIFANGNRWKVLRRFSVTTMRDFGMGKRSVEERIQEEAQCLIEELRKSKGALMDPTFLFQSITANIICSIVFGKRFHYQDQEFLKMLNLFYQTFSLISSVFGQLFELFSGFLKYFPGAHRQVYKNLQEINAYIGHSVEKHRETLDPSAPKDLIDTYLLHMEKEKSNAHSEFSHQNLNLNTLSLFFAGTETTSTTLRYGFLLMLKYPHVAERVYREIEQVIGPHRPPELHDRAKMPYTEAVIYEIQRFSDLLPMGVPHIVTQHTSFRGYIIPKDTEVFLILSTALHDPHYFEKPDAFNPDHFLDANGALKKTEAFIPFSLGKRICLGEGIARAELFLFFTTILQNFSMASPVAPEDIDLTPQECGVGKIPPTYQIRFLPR

[17] = tested on: 5/6 nephrectomy (5/6 Nx) rat model; parameters: method as in PMID 35919527; settings: GS-4997 alone; cited from earlier work
[18] = tested on: CCC‐HEL‐1; experiment: MTS cytotoxicity assay, CCC-HEL-1; type: cell-based, human; settings: 72 h
Description: (§1) Human embryonic kidney cells (HEK‐293A), human hepatocellular carcinoma cells (HUH7), human embryonic liver diploid cells (CCC‐HEL‐1) and human embryonic lung cells (MRC‐5) were selected for the cytotoxicity study of both drugs, using the MTS assay protocol. Cells were cultured at 37°C with 5% CO2 using an appropriate medium. […] After 72 h of incubation, 30 μL of MTS solution was added to each well, and the cells were then incubated for 2–4 h in the dark. The absorbance value of each well at 490 nm was measured using an enzymatic plate reader and the IC50 for each drug and each cell line was calculated. Cell viability and cytoxicity experiments were repeated three times.

[19] = tested on: L02 cells; experiment: Cell protection in PA-stimulated L02 cells (Cell Titer-Glo viability); type: cell-based, human; settings: 50 μmol/L PA, 72 h
Description: L02 cells were cultured in DMEM medium (Gibco, 11 965 092, Carlsbad, CA, USA) supplemented with 20% FBS and 1× penicillin–streptomycin. L02 cells were inoculated in two 96‐well plates at 1E4 cells/well (200 μL). The following day, the cells were stimulated with 50 μmol/L PA (dissolved in ethanol to make a 200× stock solution and then added to the medium) and simultaneously incubated with different concentrations of CS17919 and GS‐4997 (CS17919 and GS‐4997 stock solutions were added to the well plates to reach a final concentration of 10–0.3 μmol/L). After 72 h of incubation, the original medium was removed, followed by the addition of 100 μL of new DMEM medium and 60 μL of Cell Titer‐Glo reagent per well. The cells were incubated for 5 min in the dark, and then transferred to a black permeable plate for detection using an enzyme plate reader (Tecan spark, Grödig, Austria).

[20] = tested on: diabetic kidney disease; parameters: method as in PMID 25531162; settings: cited from earlier work
[21] = tested on: NASH; parameters: method as in PMID 32147362; settings: cited from earlier work
[22] = tested on: UUO mouse model; experiment: UUO mouse model of kidney injury and fibrosis; type: in vivo, C57BL/6J mice; settings: CS17919 10 and 60 mg/kg, GS-4997 30 mg/kg, gavage twice daily, 11 days
Description: 55 C57BL/6J mice, male, 6–8 weeks old were purchased from Chengdu Pharmachem Biotechnology Co. (Chengdu, China) and randomly divided into 5 groups according to their body weight: Sham (n = 10), Model (n = 15), CS17919L (10 mg/kg, n = 10), CS17919H (60 mg/kg, n = 10), and GS‐4997 (30 mg/kg, n = 10). The mice were anesthetized and fixed on the operating table, and the abdominal cortex and muscles were cut in the middle of the right side of the abdomen, and the ureter was searched for along the renal hilum. The ureter was separated using a glass split‐needle and ligated at the opening of the renal pelvis and the upper 1/3 of the ureter, and the ureter was cut between the two ligatures. Finally, the muscle and skin were closed with consecutive sutures, and animals were kept under observation until they awoke. Both the Sham and the Model group received solvent (0.2% CMC‐Na + 0.1% Tween‐80) orally twice daily. CS17919 and GS‐4997 were administered by gavage twice daily at the corresponding doses for 11 days. All treatments were started one day before surgical operation. All mice were sacrificed one day after administration with overnight fasting. Blood was collected, and serum was isolated for the analysis of urea nitrogen and creatinine. The kidney of each mouse was removed, weighed and fixed in 10% formalin solution for pathological study.
Masson staining was applied to determine kidney fibrosis in the UUO model. Thin 4 μm paraffin sections of each sample were used in this study, which followed the standard procedure. The sections were stained with Hematoxylin staining solution for 5–10 min and then washed, followed by staining with Ponceau S‐acid fuchsin stain for around 5–10 min. The sections were treated with 1% phosphomolybdic acid and Aniline Blue solution, and finally dehydrated stepwise in alcohol and sealed. VIS7.0 software was used to analyze the area of kidney fibrosis and the percentage of the fibrosis area in the scanning area was calculated.

[23] = tested on: MRC‐5; experiment: MTS cytotoxicity assay, MRC-5; type: cell-based, human; settings: 72 h
Description: as §1

[24] = 4 weeks, CS27109 10 mg/kg twice a day
[25] = serum after 4 weeks, CS27109 10 mg/kg, gavage twice a day, mean ± SD

O=C(Nc1cccc(-c2nncn2C2CC2)c1)c1cc(-n2cnc(C3CC3)c2)ccn1 [GS‐444217]
Kidney fibrosis [1]: attenuate kidney fibrosis | Glomerular sclerosis progression [2]: halt the progression of glomerular sclerosis | NASH symptoms [3]: significantly ameliorated NASH symptoms

N#Cc1nn(-c2cc(Br)c(Oc3n[nH]c(=O)c4ccccc34)c(Br)c2)c(=O)[nH]c1=O [CS27109]
Liver fibrosis area (Sirius Red staining) [4, 24]: improving all pathologic features of NASH | Liver inflammation score (H&E) [4, 24]: improving all pathologic features of NASH | Liver steatosis and ballooning scores (H&E) [4, 24]: improving all pathologic features of NASH | ALT [4, 25]: 68.7 ± 18.8^c U/L | AST [4, 25]: 113.0 ± 36.2^a U/L | HDL‐C [4, 25]: 0.665 ± 0.284 mmol/L | LDL‐C [4, 25]: 0.040 ± 0.026^b mmol/L | TC [4, 25]: 0.785 ± 0.277 mmol/L | TG [4, 25]: 0.329 ± 0.341 mmol/L | IC50 [5]: > 10 µM | Clint in liver microsomes [6]: 0.83 mL/min/kg | T1/2 in liver microsomes [6]: >120 min | Clint in liver microsomes [7]: 7.72 mL/min/kg | T1/2 in liver microsomes [7]: >120 min | Occurrence of hepatocellular carcinoma (mice affected/group) [8]: 2/8 | IC50 [9]: > 10 µM | IC50 [10]: > 10 µM | IC50 [11]: > 10 µM | Clint in liver microsomes [12]: 4.24 mL/min/kg | T1/2 in liver microsomes [12]: >120 min | IC50 [13]: > 10 µM | IC50 [14]: > 10 µM | IC50 [15]: 5.1 µM | IC50 [16]: > 10 µM

Cc1cc(F)c(C(=O)Nc2cccc(-c3nncn3C(C)C)n2)cc1-n1cnc(C2CC2)c1 [GS‐4997, Selonsertib, reference compound]
CKD-related characteristics and kidney function [17]: barely improved CKD‐related characteristics, but preserved kidney function | Cytotoxicity (cell viability) [18]: reduced cell viability at higher doses | Cell protection (cell viability normalized to PA-treated cells) ([19]; 0.32–10 μmol/L drug): only protected against cell death at lower doses | Cell viability at high drug doses ([19]; 5 and 10 μmol/L drug): reduced cell viability in a dose‐dependent manner | Outcome of DKD clinical trial [20]: did not meet its primary endpoint | Outcome of phase III NASH trial [21]: failed | Area of kidney fibrosis (Masson staining) [22]: tendency to reduce | Serum creatinine vs model group [22]: non‐significant tendency to decrease | Serum urea nitrogen vs model group [22]: significantly reduced | Cytotoxicity (cell viability) [23]: reduced cell viability at higher doses; also recorded: high‐dose cytotoxicity
